Test results published in patent publication US20170334899A1, “AMINO-SUBSTITUTED ISOTHIAZOLES” (Bayer Pharma Aktiengesellschaft, priority 2014, published 2017).

Columns and labels:
CDK2/CycE = target: T1, CDK2/CycE (Homo sapiens, UniProt P24941); test: CDK2/CycE kinase assay (TR-FRET); type: biochemical; conditions: avg, read-out: CDK2 avg (IC50 [mol/l])
T1 construct: GST; purchased ProQinase GmbH (Freiburg, Germany); host or cells: insect cells (Sf9)
Method in brief: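 Read-out is a TR-FRET 665/620 nm emission ratio from EDTA-stopped reactions detected with anti-pRB(pSer807/pSer811), Eu-labelled anti-mouse IgG and streptavidin-XL665, scaled between no-enzyme and uninhibited wells. Reaction: Sf9-expressed GST-CDK2/GST-CycE, 15 min compound preincubation, 10 μM ATP, 0.75 μM biotin-peptide, 25 min, 22° C., pH 8.0 Tris buffer.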

HeLa = test: Proliferation assay (crystal violet), HeLa; type: cell-based; conditions: Homo sapiens, HeLa, 96 h, HeLa cells; 4 days incubation; crystal violet staining; read-out: IC50 inhibition of proliferation, HeLa
Method in brief: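 Absorbance at 595 nm of crystal-violet-stained cells after 4 days' exposure to 0.001–10 μM compound (0.5% DMSO). Values normalized to a day-0 plate (0%) and untreated cells (100%); IC50 by 4-parameter fit.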

IC50 (CDK2/CycE) | IC50 (HeLa) | SMILES
≥ 20000 nM | 1300 nM | Cc1nsc(Nc2cnc(C(F)(F)F)cn2)c1C(=O)Nc1ccc(OC2CCCN(CCF)C2)nc1 (stereo not drawn) [Example 329, N-(6-{[1-(2-fluoroethyl)piperidin-3-yl]oxy}pyridin-3-yl)-3-methyl-5-{[5-(trifluoromethyl)pyrazin-2-yl]amino}-1,2-thiazole-4-carboxamide]
> 20000 nM | 470 nM | Cc1nsc(Nc2cnc(C(F)(F)F)cn2)c1C(=O)Nc1ccc(F)c(OC[C@@H]2CCCN(CC(F)(F)F)C2)c1 [Example 342, N-(4-fluoro-3-{[(3R)-1-(2,2,2-trifluoroethyl)piperidin-3-yl]methoxy}phenyl)-3-methyl-5-{[5-(trifluoromethyl)pyrazin-2-yl]amino}-1,2-thiazole-4-carboxamide]
≥ 20000 nM | 1000 nM | Cc1nsc(Nc2cnc(C(F)(F)F)cn2)c1C(=O)Nc1ccc(OCCN(C)CCF)nc1 [Example 348, N-(6-{2-[(2-fluoroethyl)(methyl)amino]ethoxy}pyridin-3-yl)-3-methyl-5-{[5-(trifluoromethyl)pyrazin-2-yl]amino}-1,2-thiazole-4-carboxamide]
> 20000 nM | 430 nM | Cc1nsc(Nc2cnc(C(F)(F)F)cn2)c1C(=O)Nc1ccc(C2CCN(CC(F)F)CC2)nc1 [Example 357, N-{6-[1-(2,2-difluoroethyl)piperidin-4 yl]pyridin-3-yl}-3-methyl-5-{[5-(trifluoromethyl)pyrazin-2-yl]amino}-1,2-thiazole-4-carboxamide]
> 20000 nM | 300 nM | CCCN1CC[C@H](Oc2ccc(NC(=O)c3c(C)nsc3Nc3cnc(C(F)(F)F)cn3)cn2)[C@@H](F)C1 [Example 370, N-(6-{[(3S,4S)-3-fluoro-1-propylpiperidin-4-yl]oxy}pyridin-3-yl)-3-methyl-5-{[5-(trifluoromethyl)pyrazin-2-yl]amino}-1,2-thiazole-4-carboxamide]
> 20000 nM | 440 nM | Cc1nsc(Nc2cnc(C(F)(F)F)cn2)c1C(=O)Nc1ccc(F)c(OC[C@@H]2CCCN(CC(F)F)C2)c1 [Example 341, N-(3-{[(3R)-1-(2,2-difluoroethyl)piperidin-3-yl]methoxy}-4-fluorophenyl)-3-methyl-5-{[5-(trifluoromethyl)pyrazin-2-yl]amino}-1,2-thiazole-4-carboxamide]
> 20000 nM | 460 nM | CCCCN1CCC(COc2ccc(NC(=O)c3c(C)nsc3Nc3cnc(C(F)(F)F)cn3)cn2)C(F)(F)C1 (stereo not drawn) [Example 396, N-{6-[(1-butyl-3,3-difluoropiperidin-4-yl)methoxy]pyridin-3-yl}-3-methyl-5-{[5-(trifluoromethyl)pyrazin-2-yl]amino}-1,2-thiazole-4-carboxamide]
> 20000 nM | 480 nM | Cc1nsc(Nc2cnc(C(F)(F)F)cn2)c1C(=O)Nc1ccc(F)c(OC[C@@H]2CCCN(CCC(F)(F)F)C2)c1 [Example 395, N-(4-fluoro-3-{[(3R)-1-(3,3,3-trifluoropropyl)piperidin-3-yl]methoxy}phenyl)-3-methyl-5-{[5-(trifluoromethyl)pyrazin-2-yl]amino}-1,2-thiazole-4-carboxamide]
≥ 20000 nM | 300 nM | Cc1nsc(Nc2cnc(C(F)(F)F)cn2)c1C(=O)Nc1ccc(OCC2CCCN(CC(F)(F)F)C2)nc1 (stereo not drawn) [Example 326, 3-methyl-N-(6-{[1-(2,2,2-trifluoroethyl)piperidin-3-yl]methoxy}pyridin-3-yl)-5-{[5-(trifluoromethyl)pyrazin-2-yl]amino}-1,2-thiazole-4-carboxamide]
> 20000 nM | 380 nM | Cc1nsc(Nc2cnc(C(F)(F)F)cn2)c1C(=O)Nc1ccc(N2CCN(CCC(F)(F)F)CC2)nc1 [Example 361, 3-methyl-5-{[5-(trifluoromethyl)pyrazin-2-yl]amino}-N-{6-[4-(3,3,3-trifluoropropyl)piperazin-1-yl]pyridin-3-yl}-1,2-thiazole-4-carboxamide]
≥ 20000 nM | 1400 nM | Cc1nsc(Nc2cncc(C(F)(F)F)n2)c1C(=O)Nc1ccc(F)c(OC2CCN(CCC(F)(F)F)CC2)c1 [Example 343, N-(4-fluoro-3-{[1-(3,3,3-trifluoropropyl)piperidin-4-yl]oxy}phenyl)-3-methyl-5-{[6-(trifluoromethyl)pyrazin-2-yl]amino}-1,2-thiazole-4-carboxamide]
> 20000 nM | 350 nM | Cc1nsc(Nc2cnc(C(F)(F)F)cn2)c1C(=O)Nc1ccc(O[C@@H]2CCN(CCC(F)(F)F)C[C@H]2F)nc1 [Example 368, N-(6-{[(3R,4R)-3-fluoro-1-(3,3,3-trifluoropropyl)piperidin-4-yl]oxy}pyridin-3-yl)-3-methyl-5-{[5-(trifluoromethyl)pyrazin-2-yl]amino}-1,2-thiazole-4-carboxamide]
≥ 20000 nM | 330 nM | Cc1nsc(Nc2cnc(C(F)(F)F)cn2)c1C(=O)Nc1ccc(OCCCN(C)CC(F)(F)F)nc1 [Example 354, 3-methyl-N-(6-{3-[methyl(2,2,2-trifluoroethyl)amino]propoxy}pyridin-3-yl)-5-{[5-(trifluoromethyl)pyrazin-2-yl]amino}-1,2-thiazole-4-carboxamide]
≥ 20000 nM | 390 nM | Cc1nsc(Nc2cnc(C(F)(F)F)cn2)c1C(=O)Nc1ccc(OCC2CCN(CCC(F)(F)F)CC2)nc1 [Example 347, 3-methyl-5-{[5-(trifluoromethyl)pyrazin-2-yl]amino}-N-(6-{[1-(3,3,3-trifluoropropyl)piperidin-4-yl]methoxy}pyridin-3-yl)-1,2-thiazole-4-carboxamide]
> 20000 nM | 410 nM | CCN1CC[C@H](Oc2ccc(NC(=O)c3c(C)nsc3Nc3cnc(C(F)(F)F)cn3)cn2)[C@@H](F)C1 [Example 365, N-(6-{[(3S,4S)-1-ethyl-3-fluoropiperidin-4-yl]oxy}pyridin-3-yl)-3-methyl-5-{[5-(trifluoromethyl)pyrazin-2-yl]amino}-1,2-thiazole-4-carboxamide]
> 20000 nM | 400 nM | Cc1nsc(Nc2cnc(C(F)(F)F)cn2)c1C(=O)Nc1ccc(O[C@@H]2CCCN(CCC(F)(F)F)C2)nc1 [Example 387, 3-methyl-5-{[5-(trifluoromethyl)pyrazin-2-yl]amino}-N-(6-{[(3R)-1-(3,3,3-trifluoropropyl)piperidin-3-yl]oxy}pyridin-3-yl)-1,2-thiazole-4-carboxamide]
> 20000 nM | 320 nM | CCCN1CC[C@@H](Oc2ccc(NC(=O)c3c(C)nsc3Nc3cnc(C(F)(F)F)cn3)cn2)[C@H](F)C1 [Example 371, N-(6-{[(3R,4R)-3-fluoro-1-propylpiperidin-4-yl]oxy}pyridin-3-yl)-3-methyl-5-{[5-(trifluoromethyl)pyrazin-2-yl]amino}-1,2-thiazole-4-carboxamide]
> 20000 nM | 430 nM | Cc1nsc(Nc2cnc(C(F)(F)F)cn2)c1C(=O)Nc1ccc(F)c(OC[C@@H]2CCN(CCC(F)(F)F)C2)c1 [Example 340, N-(4-fluoro-3-{[(3R)-1-(3,3,3-trifluoropropyl)pyrrolidin-3-yl]methoxy}phenyl)-3-methyl-5-{[5-(trifluoromethyl)pyrazin-2-yl]amino}-1,2-thiazole-4-carboxamide]
